Measured values as given in article PMC9601193, “Intracellular Metabolomics Identifies Efflux Transporter Inhibitors in a Routine Caco-2 Cell Permeability Assay—Biological Implications” (Cells, 2022).

Legend:
MRP2 [1] = target: T1, MRP2 (Homo sapiens, UniProt Q92887); assay: Caco-2 efflux of MRP2 probe CDCF (fluorescence) with/without inhibitor or in MRP2 KO cells; format: cell-based; conditions: for specificity of MRP2 inhibitors (functional assessment, Supplementary Table S1): Caco-2
T1 construct: express major uptake and efflux transporters on the apical and basal membranes, including the key efflux transporters Pgp, BCRP and MRP2; host or cells: Caco-2 (HTB-37); C2BBe1 clone WT/KO cells from SOLVO Biotechnology for the knockout comparisons
T1 sequence (Q92887 whole entry): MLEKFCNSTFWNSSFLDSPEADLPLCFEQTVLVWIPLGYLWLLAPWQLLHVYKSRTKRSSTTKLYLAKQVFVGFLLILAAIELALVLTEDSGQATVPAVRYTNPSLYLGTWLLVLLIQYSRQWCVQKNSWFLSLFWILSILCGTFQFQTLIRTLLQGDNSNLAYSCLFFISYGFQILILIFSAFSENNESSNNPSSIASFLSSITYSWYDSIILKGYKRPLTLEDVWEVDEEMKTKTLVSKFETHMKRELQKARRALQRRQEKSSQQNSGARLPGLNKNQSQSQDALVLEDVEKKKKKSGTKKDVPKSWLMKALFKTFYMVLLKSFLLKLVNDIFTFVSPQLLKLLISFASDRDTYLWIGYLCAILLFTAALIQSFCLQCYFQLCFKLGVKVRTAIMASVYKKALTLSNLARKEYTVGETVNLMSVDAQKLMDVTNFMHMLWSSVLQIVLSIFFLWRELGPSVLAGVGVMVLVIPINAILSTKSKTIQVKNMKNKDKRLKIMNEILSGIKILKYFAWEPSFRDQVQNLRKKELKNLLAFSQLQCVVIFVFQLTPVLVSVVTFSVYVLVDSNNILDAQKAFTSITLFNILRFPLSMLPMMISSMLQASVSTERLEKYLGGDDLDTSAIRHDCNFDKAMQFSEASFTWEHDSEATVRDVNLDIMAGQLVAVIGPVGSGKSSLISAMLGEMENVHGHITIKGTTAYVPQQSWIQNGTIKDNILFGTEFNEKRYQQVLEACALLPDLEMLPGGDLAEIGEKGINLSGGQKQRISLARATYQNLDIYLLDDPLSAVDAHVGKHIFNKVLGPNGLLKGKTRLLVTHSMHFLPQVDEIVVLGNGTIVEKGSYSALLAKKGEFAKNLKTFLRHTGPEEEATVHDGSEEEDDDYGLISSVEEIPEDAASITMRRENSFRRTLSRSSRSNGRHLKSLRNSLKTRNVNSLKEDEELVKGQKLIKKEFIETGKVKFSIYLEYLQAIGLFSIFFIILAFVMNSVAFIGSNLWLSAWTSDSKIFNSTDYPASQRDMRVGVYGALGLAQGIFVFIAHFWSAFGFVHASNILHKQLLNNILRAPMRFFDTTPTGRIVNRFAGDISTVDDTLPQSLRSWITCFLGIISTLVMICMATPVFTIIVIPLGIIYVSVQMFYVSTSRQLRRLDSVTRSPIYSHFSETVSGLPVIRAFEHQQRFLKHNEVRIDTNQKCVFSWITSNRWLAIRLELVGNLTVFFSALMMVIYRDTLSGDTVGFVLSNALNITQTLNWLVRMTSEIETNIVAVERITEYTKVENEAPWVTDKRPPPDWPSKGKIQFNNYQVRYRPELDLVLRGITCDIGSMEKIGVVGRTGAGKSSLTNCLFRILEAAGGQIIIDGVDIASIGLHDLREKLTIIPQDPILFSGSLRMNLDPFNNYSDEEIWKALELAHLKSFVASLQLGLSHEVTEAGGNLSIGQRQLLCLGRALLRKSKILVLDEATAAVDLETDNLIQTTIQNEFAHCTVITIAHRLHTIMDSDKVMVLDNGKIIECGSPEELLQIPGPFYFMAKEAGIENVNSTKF
Experimental: (§1) The compounds were first added into either the apical or basolateral chamber in the absence or presence of the relevant inhibitor. After 2 h incubation with the compounds, the samples from the apical and basolateral chamber were collected.
For MRP2 functional analysis, CDCF-DA (non-fluorescent diacetate), was added on the apical or basal chamber which diffuses into the cells and is converted into fluorescent CDCF (MRP2 substrate) by intracellular esterases. Efflux of the fluorescent CDCF was monitored by transferring 75 μL of samples from both the donor and acceptor compartments to a clear-bottomed black 96-well plate. The CDCF fluorescence was then measured on the plate reader with 485 (exc)/528 (em) nm wavelength.
(§2) The apparent permeability (Papp) of the substrate was calculated as follows: • Papp = (dQ/dt)/(C0 × Vr A) • dQ/dt = slope of the linear portion of the permeated amount versus time curve (µmol/l/s) • A = effective surface area of the Transwell insert (0.11 cm^2) • C0 = initial concentration of the substrate (µmol/L) • Vr = the volume of the receiver chamber (mL).
(§3) The efflux ratio was calculated as follows: • Papp (B to A)/Papp (A to B)
(§4) Pgp, BCRP and MRP2 knockout (stable) Caco-2 cells (C2BBe1) were kindly provided by SOLVO Biotechnology (Szeged, Hungary). The individual transporters were knocked out using zinc finger nuclease technology. The knockout cell lines were cultured for 21 days except BCRP KO, which was grown for 25 days in a 96-well format. Assay conditions were in accordance with the Caco-2 assay from our lab. Transport analysis was performed according to the protocol described above. After transport experiments, metabolites were extracted from Caco-2 cells and analyzed according to the protocols described below.

BCRP [2] = target: T2, BCRP (Homo sapiens, UniProt Q9UNQ0); assay: Intracellular LC-MS metabolomic signature and inhibition score for BCRP in Caco-2 cells; conditions: Ko143 10 µM, Fumitremorgin C 5 µM, novobiocin 30 µM; Caco-2, 2 h
T2 sequence (Q9UNQ0 1-655): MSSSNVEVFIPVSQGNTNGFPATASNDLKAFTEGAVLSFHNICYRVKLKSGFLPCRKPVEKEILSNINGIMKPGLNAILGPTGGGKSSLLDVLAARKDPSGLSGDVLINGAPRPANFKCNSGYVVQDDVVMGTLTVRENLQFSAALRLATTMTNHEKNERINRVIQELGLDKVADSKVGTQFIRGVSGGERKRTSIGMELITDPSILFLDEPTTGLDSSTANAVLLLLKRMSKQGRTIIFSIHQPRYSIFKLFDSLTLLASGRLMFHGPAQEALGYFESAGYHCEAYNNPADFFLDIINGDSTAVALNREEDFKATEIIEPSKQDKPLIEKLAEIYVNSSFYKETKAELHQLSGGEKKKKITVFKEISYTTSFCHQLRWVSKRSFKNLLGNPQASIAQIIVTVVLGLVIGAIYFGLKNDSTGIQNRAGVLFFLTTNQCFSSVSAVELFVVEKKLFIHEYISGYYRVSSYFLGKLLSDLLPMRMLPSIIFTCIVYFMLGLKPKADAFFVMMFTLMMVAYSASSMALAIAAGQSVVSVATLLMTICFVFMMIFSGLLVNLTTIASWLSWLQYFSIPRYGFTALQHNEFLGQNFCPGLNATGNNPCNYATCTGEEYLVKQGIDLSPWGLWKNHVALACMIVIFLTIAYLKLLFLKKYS
Experimental: First, 2 × 10^4 cells/well were seeded on a 96 Transwell™ thin film polycarbonate membrane (0.4 µM pore size). Plates were incubated at 37 °C, 5% CO2 and 95% humidity. The cells were grown for 10 days and then treated on day 10. The monolayer integrity was checked prior to the experiment by measuring the transepithelial electrical resistance (TEER) using a TEER electrode. All TEER values ranged between 2000 and 4000 ohms∗cm^2, values greater than 1000 ohms∗cm^2 were used as an indicator of an intact monolayer.
MK571 (200 µM, n = 3) and Benzbromarone (66.7 µM, n= 1) were used to inhibit MRP2 activity. The compounds were diluted to the final concentration in HBSS (pH 7.4); 1% DMSO in HBSS was used as a control. Before treatment, media was removed, and the cells were washed twice with HBSS. […]
MultiQuant® software (v 3.0.3) was used for peak integration and the peak area for each metabolite was then exported. All data sets were normalized using the total sum of the quantified analyte area. The data were analyzed by SIMCA® 15/17 for multivariate analysis including Orthogonal Partial Least Squares–Discriminant Analysis (OPLS-DA). […]
The percentage difference for the normalized area of each (transporter) signature metabolite was calculated using the following equation:100 × (treated—control)/control

MRP2 [3] = target: T1, MRP2; assay: Intracellular LC-MS metabolomic signature and inhibition score for MRP2 in Caco-2 cells; format: cell-based
Experimental: (§5) Samples were dried using a nitrogen evaporator.
(§6) The sample injection volume was 2 μL. Sample data were acquired using Analyst software. All the samples were randomized to avoid analytical bias.

MTHFR = assay: Protein expression by Simple Western (WES/JESS) in Caco-2 cells: MTHFR; format: cell-based, human; conditions: 24 h; zosuquidar 5 µM, Ko143 10 µM, MK571 200 µM; normalized to vinculin
Experimental: (§7) Cells were grown in a 6-well plate for 48 h and in a transwell for 10 days. Cells in the 6-well plates were incubated with inhibitors for 24 h and the cells in the transwell plate were incubated with inhibitors for 2 h to replicate metabolic effects. Protein extraction was performed once the cells were 90% confluent. Lysis buffer solution was prepared by adding 200 µL of phosphatase inhibitor cocktail 2 and 3 (Sigma-Aldrich, Dorset, UK), 100 µL of 100 mM PMSF protease inhibitor and 1 mL of CST lysis buffer (Cell Signaling Technology, Danvers, MA, USA) to 8.5 mls of deionized water. In the 6-well plate, cells were washed twice with ice-cold PBS, lysed with 500 μL of cold lysis buffer and transferred to Eppendorf tubes. The KO cells were lysed immediately after being taken out of the liquid nitrogen stock. […] The total protein concentration of the lysate was determined using Direct Detect™ infrared (IR)-based quantification system. […]
(§8) Different loading controls were used, depending on molecular weight and relative intensities of signal, and conditions were optimized accordingly. Protein samples were analyzed on a JESS/WES® (Simple Western system, Bio-Techne, Abingdon, UK) according to the manufacturer’s instructions (Protein Simple, Bio-Techne, Abingdon, UK) using a 12–230 kDa separation module. […]

thymidylate synthase = assay: Protein expression by Simple Western (WES/JESS) in Caco-2 cells: thymidylate synthase; format: cell-based, human; conditions: 24 h incubation; zosuquidar 5 µM, MK571 200 µM
Experimental: as §7, §8

[4] = system: Adenosylhomocysteinase (AHCY); assay: Protein expression by Simple Western (WES/JESS) in Caco-2 cells: AHCY; format: cell-based, human; conditions: 2 and 24 h incubation; MK571 200 µM
Experimental: as §7, §8

[5] = system: Serine Hydroxymethyltransferase 1 (SHMT1); assay: Protein expression by Simple Western (WES/JESS) in Caco-2 cells: SHMT1; format: cell-based, human; conditions: 2 and 24 h; MK571 200 µM
Experimental: as §7, §8

Pgp [6] = target: T3, Pgp (Homo sapiens, UniProt P08183); assay: Caco-2 bidirectional transport of Pgp probe indinavir with/without inhibitor or in Pgp KO cells; format: cell-based; conditions: for specificity of Pgp inhibition among Pgp, BCRP and MRP2 (functional experiments): zosuquidar 10 µM, valspodar 50 nM
T3 construct: express major uptake and efflux transporters on the apical and basal membranes, including the key efflux transporters Pgp, BCRP and MRP2; host or cells: Caco-2 (HTB-37); C2BBe1 clone WT/KO cells from SOLVO Biotechnology for the knockout comparisons
T3 sequence (P08183 whole entry): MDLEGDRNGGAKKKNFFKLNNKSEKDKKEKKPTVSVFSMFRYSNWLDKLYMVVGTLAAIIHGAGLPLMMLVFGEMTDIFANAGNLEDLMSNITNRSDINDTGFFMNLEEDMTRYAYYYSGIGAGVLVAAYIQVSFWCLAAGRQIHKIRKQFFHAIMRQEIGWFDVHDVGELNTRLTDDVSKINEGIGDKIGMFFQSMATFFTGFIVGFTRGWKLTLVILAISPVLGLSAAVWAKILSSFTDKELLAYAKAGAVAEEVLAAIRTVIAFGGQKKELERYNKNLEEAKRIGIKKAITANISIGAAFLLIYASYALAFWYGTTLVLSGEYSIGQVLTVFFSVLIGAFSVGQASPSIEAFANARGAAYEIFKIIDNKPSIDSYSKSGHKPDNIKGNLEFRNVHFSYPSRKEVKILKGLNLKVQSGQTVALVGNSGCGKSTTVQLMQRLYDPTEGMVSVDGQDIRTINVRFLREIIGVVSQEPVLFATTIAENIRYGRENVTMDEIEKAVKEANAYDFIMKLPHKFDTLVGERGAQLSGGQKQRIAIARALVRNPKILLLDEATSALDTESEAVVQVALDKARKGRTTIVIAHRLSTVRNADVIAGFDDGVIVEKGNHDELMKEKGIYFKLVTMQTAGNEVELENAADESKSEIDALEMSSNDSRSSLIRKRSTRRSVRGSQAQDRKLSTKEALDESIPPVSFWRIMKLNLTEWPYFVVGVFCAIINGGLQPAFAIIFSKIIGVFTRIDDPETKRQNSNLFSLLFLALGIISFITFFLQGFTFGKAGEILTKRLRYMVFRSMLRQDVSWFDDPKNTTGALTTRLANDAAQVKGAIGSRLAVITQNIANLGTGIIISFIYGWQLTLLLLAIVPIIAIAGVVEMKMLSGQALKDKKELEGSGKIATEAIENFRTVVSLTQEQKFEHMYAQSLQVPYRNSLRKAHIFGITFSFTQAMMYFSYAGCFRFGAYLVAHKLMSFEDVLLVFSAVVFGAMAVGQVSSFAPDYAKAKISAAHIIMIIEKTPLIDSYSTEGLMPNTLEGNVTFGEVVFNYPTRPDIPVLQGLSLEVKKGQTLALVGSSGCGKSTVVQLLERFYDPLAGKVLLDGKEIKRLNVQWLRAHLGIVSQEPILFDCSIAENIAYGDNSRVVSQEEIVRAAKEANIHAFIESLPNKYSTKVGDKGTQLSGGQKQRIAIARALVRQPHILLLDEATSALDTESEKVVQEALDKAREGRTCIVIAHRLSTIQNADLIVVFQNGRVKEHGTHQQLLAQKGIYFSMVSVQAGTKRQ
Experimental: as §1
(§9) For Pgp and BCRP functional analysis, a 75 µL aliquot of the samples was collected from both the donor and acceptor compartments and transferred to a new 96-well microplate (V bottom) containing 75 µL of methanol. 10 µL from the mixture was collected and transferred to a new plate containing 90 µL of 50:50 methanol/water. The concentration of probe substrates in the samples was then quantified using LC-MS.
The flow rate was 0.6 mL/min, and the total run time was 3.5 min. The sample injection volume was 2 μL. Sample data were acquired using Analyst software.
as §2, §3, §4

BCRP [7] = target: T2, BCRP; assay: Caco-2 bidirectional transport of BCRP probe estrone-3-sulfate with/without inhibitor or in BCRP KO cells; format: cell-based; parameters: express major uptake and efflux transporters on the apical and basal membranes, including the key efflux transporters Pgp, BCRP and MRP2; host or cells: Caco-2 (HTB-37); C2BBe1 clone WT/KO cells from SOLVO Biotechnology for the knockout comparisons; conditions: C2BBe1 Caco-2 BCRP KO vs WT
Experimental: as §1, §9
The flow rate was 0.6 mL/min, and the total run time was 3.5 min. […]
as §2, §3
Pgp, BCRP and MRP2 knockout (stable) Caco-2 cells (C2BBe1) were kindly provided by SOLVO Biotechnology (Szeged, Hungary). […] After transport experiments, metabolites were extracted from Caco-2 cells and analyzed according to the protocols described below.

Pgp [8] = target: T3, Pgp; assay: Intracellular LC-MS metabolomic signature and inhibition score for Pgp in Caco-2 cells; format: cell-based; conditions: some of the metabolites
Experimental: as §5, §6
For example, for Pgp, the percentage changes in Pgp signature metabolites with Pgp inhibition were summed to calculate a Pgp inhibition score for that inhibitor.

methionine synthase = assay: Protein expression by Simple Western (WES/JESS) in Caco-2 cells: methionine synthase; format: cell-based, human; conditions: 2 and 24 h incubation; zosuquidar 5 µM
Experimental: as §7, §8

[9] = parameters: method as in PMID 33312947; conditions: trials testing efficacy against multidrug resistance; cited from earlier work

5(6)-carboxy-2′,7′-dichlorofluorescein [CDCF]
efflux ratio in MRP2 KO cells in comparison with wild type cells (MRP2 [1]; C2BBe1 Caco-2 MRP2 KO vs WT): reduced

COc1ccc2c3c([nH]c2c1)[C@H](C=C(C)C)N1C(=O)[C@@H]2CCCN2C(=O)[C@@H]1C3 [Fumitremorgin C]
intracellular levels of glutamate, hypoxanthine and xanthine (BCRP [2]): decreased
intracellular pantothenate levels (BCRP [2]): increased

CN(C)C(=O)CCSC(SCCC(=O)O)c1cccc(/C=C/c2ccc3ccc(Cl)cc3n2)c1 (stereo not drawn) [MK571]
specificity of MRP2 inhibitors (functional assessment, Supplementary Table S1) (MRP2 [1]): lack of specificity
CDCF efflux in presence of inhibitor (MRP2 [1]; Caco-2 monolayer, CDCF 10 µM, 2 h): markedly reduced
change of MRP2 signature metabolites with increasing inhibitor concentration (MRP2 [3]): concentration-dependent change
MTHFR protein expression (MTHFR): significant decrease
thymidylate synthase expression (thymidylate synthase): reduced
Adenosylhomocysteinase (AHCY) protein levels [4]: significantly reduced
Serine Hydroxymethyltransferase 1 (SHMT1) expression [5]: significant reduction

CCc1oc2ccccc2c1C(=O)c1cc(Br)c(O)c(Br)c1 [benzbromarone, Benzbromarone]
specificity of MRP2 inhibitors (functional assessment, Supplementary Table S1) (MRP2 [1]): lack of specificity

CN(C)CCCN1c2ccccc2Sc2ccc(Cl)cc21 [chlorpromazine]
Pgp inhibition compared to other additional inhibitors (Pgp [6]; validation inhibitors of Figure 5C): weaker interaction with Pgp

C[C@]12CC[C@@H]3c4ccc(OS(=O)(=O)O)cc4CC[C@H]3[C@@H]1CCC2=O [estrone-3-sulfate]
efflux ratio in BCRP KO cells in comparison with wild type cells (BCRP [7]): reduced

C/C=C/C[C@@H](C)C(=O)[C@H]1C(=O)N[C@@H](C(C)C)C(=O)N(C)CC(=O)N(C)[C@@H](CC(C)C)C(=O)N[C@@H](C(C)C)C(=O)N(C)[C@@H](CC(C)C)C(=O)N[C@@H](C)C(=O)N[C@H](C)C(=O)N(C)[C@@H](CC(C)C)C(=O)N(C)[C@@H](CC(C)C)C(=O)N(C)[C@@H](C(C)C)C(=O)N1C [valspodar]
specificity of Pgp inhibition among Pgp, BCRP and MRP2 (functional experiments) (Pgp [6]): specifically inhibit Pgp

O[C@@H](COc1cccc2ncccc12)CN1CCN([C@@H]2c3ccccc3[C@@H]3[C@H](c4ccccc42)C3(F)F)CC1 [zosuquidar]
transcellular transport of indinavir in presence of inhibitor (Pgp [6]; Caco-2 monolayer, indinavir 10 µM, 2 h): inhibited
specificity of Pgp inhibition among Pgp, BCRP and MRP2 (functional experiments) (Pgp [6]): specifically inhibit Pgp
change of Pgp signature metabolites with increasing inhibitor concentration (Pgp [8]): concentration dependent change
MTHFR protein expression (MTHFR): increase
thymidylate synthase expression (thymidylate synthase): reduced
methionine synthase expression (methionine synthase): increase
toxicity observed in clinical trials [9]: neurotoxicity
